According to the supplement of paper PMC13380429:

What was measured:
Details in all cases: 72 h
[1] = test system: Caco-2; experiment: cell viability relative to DMSO; higher = less toxic
[2] = test system: Calu-3; experiment: as above
[3] = test system: HepG2; experiment: as above
[4] = test system: U2OS; experiment: as above
[5] = test system: Vero E6; experiment: as above
[6] = test system: Caco-2; experiment: relative viability EC50 (midpoint between 100% and the lowest measured viability); higher = less toxic
[7] = test system: Calu-3; experiment: as above
[8] = test system: U2OS; experiment: as above
[9] = test system: Caco-2; experiment: drug sensitivity score (DSS) for viability; higher = more toxic; extreme values may be limits of the assay
[10] = test system: Calu-3; experiment: as above
[11] = test system: HepG2; experiment: as above
[12] = test system: U2OS; experiment: as above
[13] = test system: Vero E6; experiment: as above
[14] = test system: HepG2; experiment: relative viability EC50 (midpoint between 100% and the lowest measured viability); higher = less toxic
[15] = test system: Vero E6; experiment: as above

| Compound | cell viability ([1]; 1 nM) [%] | cell viability ([1]; 10 nM) [%] | cell viability ([1]; 100 nM) [%] | cell viability ([1]; 1000 nM) [%] | cell viability ([1]; 10000 nM) [%] | cell viability ([2]; 1 nM) [%] | cell viability ([2]; 10 nM) [%] | cell viability ([2]; 100 nM) [%] | cell viability ([2]; 1000 nM) [%] | cell viability ([2]; 10000 nM) [%] | cell viability ([3]; 1 nM) [%] | cell viability ([3]; 10 nM) [%] | cell viability ([3]; 100 nM) [%] | cell viability ([3]; 1000 nM) [%] | cell viability ([3]; 10000 nM) [%] | cell viability ([4]; 1 nM) [%] | cell viability ([4]; 10 nM) [%] | cell viability ([4]; 100 nM) [%] | cell viability ([4]; 1000 nM) [%] | cell viability ([4]; 10000 nM) [%] | cell viability ([5]; 1 nM) [%] | cell viability ([5]; 10 nM) [%] | cell viability ([5]; 100 nM) [%] | cell viability ([5]; 1000 nM) [%] | cell viability ([5]; 10000 nM) [%] | relative viability EC50 [6] [µM] | relative viability EC50 [7] [µM] | relative viability EC50 [8] [µM] | drug sensitivity score [9] | drug sensitivity score [10] | drug sensitivity score [11] | drug sensitivity score [12] | drug sensitivity score [13] | relative viability EC50 [14] [µM] | relative viability EC50 [15] [µM] |
| --- | --- | --- | --- | --- | --- | --- | --- | --- | --- | --- | --- | --- | --- | --- | --- | --- | --- | --- | --- | --- | --- | --- | --- | --- | --- | --- | --- | --- | --- | --- | --- | --- | --- | --- | --- |
| O=C(Cc1cccc(OC(F)(F)F)c1)Nc1ccc(CCCCc2nnc(NC(=O)Cc3ccccn3)s2)nn1 [CB-839] | 94.9 | 98.7 | 101 | 105 | 106 | 107 | 102 | 89.5 | 89.1 | 86.6 | 96.7 | 89.2 | 78.1 | 66.1 | 71.4 | 99.6 | 105 | 92.6 | 75.9 | 82 | 95.7 | 93.9 | 89.5 | 65.2 | 65.3 | > 10 | > 10 | > 10 | 0 | 1.5 | 8.4 | 4.7 | 7.1 | – | – |
| COc1cc2c(cc1OC(C)C)[C@H](c1ccc(Cl)cc1)N(c1ccc(N(C)C[C@H]3CC[C@H](N4CCN(C)C(=O)C4)CC3)cc1)C(=O)C2 [CGM097] | 96.6 | 105 | 93.6 | 98.8 | 85.9 | – | – | – | – | – | 104 | 109 | 100 | 75.2 | 26.1 | 98.1 | 104 | 94.7 | 94.6 | 44.8 | 102 | 105 | 95.1 | 83.3 | 46.9 | > 10 | – | 2.36 | 0.3 | – | 7.6 | 3.8 | 5 | 1.31 | 1.45 |
| O=C(CCCCCCCn1cc(-c2cccnc2)nn1)Nc1ccccc1-c1ccccc1 [GPP-78] | 109 | 97.9 | 106 | 4 | 3.6 | – | – | – | – | – | 96.6 | 92 | 103 | 25.4 | 18.8 | 101 | 99.7 | 110 | 0.2 | 0.1 | 99.2 | 103 | 8.7 | 2.1 | 2.7 | 0.352 | – | 0.365 | 16.8 | – | 13.6 | 17.2 | 28.7 | 0.415 | 0.0395 |
| COc1ccc(-n2c(SCc3nc(-c4ccc(C)cc4)no3)nnc2-c2ccncc2)cc1 [JW-74] | 111 | 114 | 110 | 100 | 86.9 | 95.1 | 106 | 109 | 107 | 70.8 | 99.7 | 101 | 96.2 | 95.3 | 93.3 | 96.4 | 98.3 | 97 | 96 | 81.4 | 108 | 105 | 107 | 88.7 | 68.2 | > 10 | – | > 10 | 0.1 | 0.9 | 0 | 1 | 3 | > 10 | – |
| CCCCCCCC/C=C\CCCCCCCC(=O)NCCc1ccc(O)c(O)c1 [OLDA] | 98.1 | 90.4 | 96.7 | 92 | 61.9 | 105 | 98.6 | 97.9 | 103 | 104 | 98.1 | 107 | 100 | 103 | 56.3 | 101 | 99.1 | 98.3 | 94.6 | 25.9 | 106 | 101 | 99 | 99.2 | 61.7 | – | > 10 | 2.58 | 3.2 | 0 | 2 | 4.9 | 2 | – | – |
| CCCCCOc1ccc(-c2ccc(-c3ccc(C(=O)N[C@H]4C[C@@H](O)[C@@H](O)NC(=O)[C@@H]5[C@@H](O)[C@@H](C)CN5C(=O)[C@H]([C@@H](C)O)NC(=O)[C@H]([C@H](O)[C@@H](O)c5ccc(O)cc5)NC(=O)[C@@H]5C[C@@H](O)CN5C(=O)[C@H]([C@@H](C)O)NC4=O)cc3)cc2)cc1 [anidulafungin] | 110 | 106 | 105 | 105 | 59.2 | 99.6 | 90.1 | 96.6 | 83.2 | 90.5 | 97.4 | 104 | 97.6 | 97.1 | 68.7 | 94.8 | 95.6 | 96.8 | 98.1 | 94 | 94.8 | 102 | 104 | 101 | 100 | – | > 10 | > 10 | 1.7 | 0.5 | 1.9 | 0 | 0 | – | > 10 |
